Assay results taken from patent US7910337B2, “Method for identifying drug-sensitizing antisense DNA fragments and use thereof” (priority 2006, dated 2011).

Experiments:
[1] = test system: S. aureus engineered with murB antisense
MetRS antisense clones = format: cell-based, B. anthracis
[2] = test system: B. anthracis murB-2 antisense strain

Compound	IC50 shift (sensitivity), antibiotic panel [1] [fold]	difference in sensitivity with and without inducer (MetRS antisense clones)	IC50 shift [2]	IC50 shift [1]
CO/N=C(\C(=O)N[C@@H]1C(=O)N2C(C(=O)[O-])=C(C[N+]3(C)CCCC3)CS[C@H]12)c1csc(N)n1 [cefepime]	≥ 4	–	–	–
CO/N=C(\C(=O)N[C@@H]1C(=O)N2C(C(=O)O)=C(COC(C)=O)CS[C@H]12)c1csc(N)n1 [cefotaxime]	≥ 4	no difference in sensitivity	343	–
CO[C@@]1(NC(=O)Cc2cccs2)C(=O)N2C(C(=O)O)=C(COC(N)=O)CS[C@@H]21 [cefoxitin]	≥ 4	–	–	7.8
Cc1nnc(SCC2=C(C(=O)O)N3C(=O)[C@@H](NC(=O)Cn4cnnn4)[C@H]3SC2)s1 [cefozolin]	≥ 4	–	–	–
CO/N=C(\C(=O)N[C@@H]1C(=O)N2C(C(=O)O)=C(CSc3nc(=O)c(=O)[nH]n3C)CS[C@H]12)c1csc(N)n1 [ceftriaxone]	≥ 4	–	–	–
Cc1onc(-c2c(Cl)cccc2Cl)c1C(=O)N[C@@H]1C(=O)N2[C@@H]1SC(C)(C)[C@@H]2C(=O)O [dicloxacillin]	≥ 4	–	–	5.8
Cc1onc(-c2ccccc2)c1C(=O)N[C@@H]1C(=O)N2[C@@H]1SC(C)(C)[C@@H]2C(=O)O [oxacillin]	≥ 4	–	–	–
CCN1CCN(C(=O)N[C@@H](C(=O)N[C@@H]2C(=O)N3[C@@H]2SC(C)(C)[C@@H]3C(=O)O)c2ccccc2)C(=O)C1=O [pipericillin]	≥ 4	–	–	–
